Data reported in PubChem BioAssay AID248 (DTP/NCI, 2004).
Values joined by “and” are separate entries in the source; they are usually repeats but may differ in a detail not shown here. Equal values may be shown once. Toxic doses and inconclusive results are not listed. No stated cut-off is given here; in the data, active means T/C of 150% or more; inactive means T/C below 125%.

Test system: L1210 leukemia ip in BDF1 mice, survival T/C
Experiment: NCI In Vivo Anticancer Drug Screen. Data for tumor model L1210 Leukemia (intraperitoneal) in B6D2F1 (BDF1) mice
Conditions: endpoint: mean survival time, higher = longer survival
How it was run: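 Tumor was transplanted into mice, which were then dosed with test compound or vehicle alone. Survival was recorded for each group, and the treated figure was expressed relative to the control figure.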

[1] = dose: 100.0 mg/kg/injection, schedule: Q04DX003 (ip), vehicle: saline with Tween-80
[2] = dose: 200.0 mg/kg/injection, schedule: Q04DX003 (ip), vehicle: saline with Tween-80
[3] = dose: 400.0 mg/kg/injection, schedule: Q04DX003 (ip), vehicle: saline with Tween-80
[4] = dose: 100.0 mg/kg/injection, schedule: Q01DX001 (ip), vehicle: saline
[5] = dose: 100.0 mg/kg/injection, schedule: Q01DX009 (ip), vehicle: saline with Tween-80
[6] = dose: 200.0 mg/kg/injection, schedule: Q01DX009 (ip), vehicle: saline with Tween-80
[7] = dose: 100.0 mg/kg/injection, schedule: Q01DX009 (ip), vehicle: Klucel (hydroxypropylcellulose) (HPC)
[8] = dose: 50.0 mg/kg/injection, schedule: Q01DX009 (ip), vehicle: saline with Tween-80
[9] = dose: 200.0 mg/kg/injection, schedule: Q01DX009 (ip), vehicle: Klucel (hydroxypropylcellulose) (HPC)
[10] = dose: 400.0 mg/kg/injection, schedule: Q01DX009 (ip), vehicle: Klucel (hydroxypropylcellulose) (HPC)

Measured: T/C

COC(=O)NC1C(C)C=CC(C)C1I (stereo not given)
inactive: dose: 100.0 mg/kg/injection, schedule: Q01DX009 (ip), vehicle: other 109 % of control | [1] 104 % of control | dose: 200.0 mg/kg/injection, schedule: Q01DX009 (ip), vehicle: other 96 % of control | [2] 98 % of control | dose: 400.0 mg/kg/injection, schedule: Q01DX009 (ip), vehicle: other 113 % of control | [3] 97 % of control

Cc1ccc(Nc2nc(N)nc(N)c2N=O)cc1
inactive: dose: 25.0 mg/kg/injection, schedule: Q01DX Z (ip), vehicle: methylcellulose (MC) 101 % of control | dose: 50.0 mg/kg/injection, schedule: Q01DX Z (ip), vehicle: methylcellulose (MC) 90 % of control

CCCCCCCCCCC(=O)N(CC)CC
inactive: dose: 100.0 mg/kg/injection, schedule: Q01DX009 (ip), vehicle: carboxymethylcellulose (CMC) 97 % of control and 92 % of control | dose: 100.0 mg/kg/injection, schedule: Q04DX002 (ip), vehicle: carboxymethylcellulose (CMC) 94 % of control | dose: 200.0 mg/kg/injection, schedule: Q01DX009 (ip), vehicle: carboxymethylcellulose (CMC) 97 % of control and 100 % of control | dose: 200.0 mg/kg/injection, schedule: Q04DX002 (ip), vehicle: carboxymethylcellulose (CMC) 96 % of control | dose: 400.0 mg/kg/injection, schedule: Q01DX009 (ip), vehicle: carboxymethylcellulose (CMC) 96 % of control | dose: 400.0 mg/kg/injection, schedule: Q04DX002 (ip), vehicle: carboxymethylcellulose (CMC) 100 % of control

Nc1cc(=O)n(Cc2ccccc2)c(=O)n1Cc1ccccc1
inactive: dose: 50.0 mg/kg/injection, schedule: Q01DX001 (ip), vehicle: carboxymethylcellulose (CMC) 104 % of control | dose: 100.0 mg/kg/injection, schedule: Q01DX001 (ip), vehicle: carboxymethylcellulose (CMC) 101 % of control | dose: 200.0 mg/kg/injection, schedule: Q01DX001 (ip), vehicle: carboxymethylcellulose (CMC) 111 % of control | dose: 400.0 mg/kg/injection, schedule: Q01DX001 (ip), vehicle: carboxymethylcellulose (CMC) 98 % of control

O=Nc1c(-c2c[nH]c3ccccc23)[nH]c2ccccc12
inactive: dose: 50.0 mg/kg/injection, schedule: Q01DX001 (ip), vehicle: saline 106 % of control | [4] 102 % of control

c1ccc(CNc2cccc3c(NCc4ccccc4)cccc23)cc1
inactive: dose: 100.0 mg/kg/injection, schedule: Q01DX001 (ip), vehicle: saline with Tween-80 87 % of control | [5] 86 % of control | [1] 88 % of control | dose: 200.0 mg/kg/injection, schedule: Q01DX001 (ip), vehicle: saline with Tween-80 95 % of control | [6] 93 % of control | dose: 400.0 mg/kg/injection, schedule: Q01DX001 (ip), vehicle: saline with Tween-80 88 % of control | dose: 400.0 mg/kg/injection, schedule: Q01DX009 (ip), vehicle: saline with Tween-80 95 % of control

CC(C)(C)NC(=O)C1C2C=CC(C2)C1C(=O)NC(C)(C)C (stereo not given)
inactive: [1] 96 % of control | [2] 91 % of control | [3] 91 % of control

Oc1cc(Cl)c(Cl)cc1Cl.[Cu+2]
inactive: dose: 12.5 mg/kg/injection, schedule: Q04DX003 (ip), vehicle: gum acacia 92 % of control | dose: 25.0 mg/kg/injection, schedule: Q04DX003 (ip), vehicle: gum acacia 93 % of control

O=NC1C(Cl)C2CC1C1C(Br)C(Br)CC21 (stereo not given)
inactive: dose: 12.5 mg/kg/injection, schedule: Q04DX003 (ip), vehicle: Klucel (hydroxypropylcellulose) (HPC) 100 % of control | dose: 25.0 mg/kg/injection, schedule: Q01DX009 (ip), vehicle: Klucel (hydroxypropylcellulose) (HPC) 93 % of control | dose: 25.0 mg/kg/injection, schedule: Q04DX003 (ip), vehicle: Klucel (hydroxypropylcellulose) (HPC) 102 % of control | dose: 50.0 mg/kg/injection, schedule: Q01DX001 (ip), vehicle: Klucel (hydroxypropylcellulose) (HPC) 95 % of control | dose: 50.0 mg/kg/injection, schedule: Q01DX009 (ip), vehicle: Klucel (hydroxypropylcellulose) (HPC) 93 % of control | dose: 50.0 mg/kg/injection, schedule: Q04DX003 (ip), vehicle: Klucel (hydroxypropylcellulose) (HPC) 100 % of control | dose: 100.0 mg/kg/injection, schedule: Q01DX001 (ip), vehicle: Klucel (hydroxypropylcellulose) (HPC) 92 % of control | [7] 88 % of control | dose: 150.0 mg/kg/injection, schedule: Q01DX009 (ip), vehicle: saline 90 % of control | dose: 200.0 mg/kg/injection, schedule: Q01DX001 (ip), vehicle: Klucel (hydroxypropylcellulose) (HPC) 89 % of control | dose: 335.0 mg/kg/injection, schedule: Q01DX009 (ip), vehicle: saline 94 % of control

O=C(O)C1C2C=CC(C2)C1C(=O)Nc1ccccn1 (stereo not given)
inactive: [8] 104 % of control | [5] 101 % of control | [6] 96 % of control

C1CCC2(CC1)CCCC2
inactive: dose: 75.0 mg/kg/injection, schedule: Q01DX001 (ip), vehicle: saline with Tween-80 95 % of control | dose: 150.0 mg/kg/injection, schedule: Q01DX001 (ip), vehicle: saline with Tween-80 92 % of control | dose: 300.0 mg/kg/injection, schedule: Q01DX001 (ip), vehicle: saline with Tween-80 104 % of control

CCCCCCCCCCCCC(CCC)(OO)C(=O)OC (stereo not given)
inactive: dose: 25.0 mg/kg/injection, schedule: Q04DX002 (ip), vehicle: saline with Tween-80 98 % of control | dose: 50.0 mg/kg/injection, schedule: Q04DX002 (ip), vehicle: saline with Tween-80 87 % of control | dose: 100.0 mg/kg/injection, schedule: Q04DX002 (ip), vehicle: saline with Tween-80 98 % of control

CCOC(=O)c1ccc(NC(=O)Oc2ccc(C=O)cc2OC)cc1
inactive: [7] 93 % of control | [9] 101 % of control | [10] 95 % of control

CCN(CC#N)c1ccc(Nc2cc(Cl)ccc2Cl)cc1
inactive: dose: 75.0 mg/kg/injection, schedule: Q01DX001 (ip), vehicle: other 107 % of control | dose: 150.0 mg/kg/injection, schedule: Q01DX001 (ip), vehicle: other 96 % of control | dose: 300.0 mg/kg/injection, schedule: Q01DX001 (ip), vehicle: other 100 % of control

CC(=O)NC(C(=O)O)(C(=O)O)C(C)c1c[nH]c2ccccc12 (stereo not given)
inactive: [1] 95 % of control | [2] 90 % of control | [3] 95 % of control

OC1OC(CN(CCCl)c2ccccc2)C(O)C(O)C1O (stereo not given)
inactive: dose: 18.0 mg/kg/injection, schedule: Q01DX Z (ip), vehicle: methylcellulose (MC) 109 % of control | dose: 27.0 mg/kg/injection, schedule: Q01DX Z (ip), vehicle: methylcellulose (MC) 117 % of control | dose: 60.0 mg/kg/injection, schedule: Q01DX Z (ip), vehicle: methylcellulose (MC) 117 % of control

Cc1cccc2c(CCC(=O)O)c[nH]c12
inactive: [4] 100 % of control | dose: 200.0 mg/kg/injection, schedule: Q01DX001 (ip), vehicle: saline 94 % of control | dose: 400.0 mg/kg/injection, schedule: Q01DX001 (ip), vehicle: saline 94 % of control

S=c1nc[nH]c2ccccc12
inactive: [7] 93 % of control | dose: 100.0 mg/kg/injection, schedule: Q04DX003 (ip), vehicle: Klucel (hydroxypropylcellulose) (HPC) 91 % of control | [9] 95 % of control | dose: 200.0 mg/kg/injection, schedule: Q04DX003 (ip), vehicle: Klucel (hydroxypropylcellulose) (HPC) 94 % of control | [10] 88 % of control | dose: 400.0 mg/kg/injection, schedule: Q04DX003 (ip), vehicle: Klucel (hydroxypropylcellulose) (HPC) 98 % of control

Cc1[nH]c(=O)[nH]c(=O)c1NCCO
inactive: dose: 100.0 mg/kg/injection, schedule: Q01DX009 (ip), vehicle: water 91 % of control | dose: 100.0 mg/kg/injection, schedule: Q04DX003 (ip), vehicle: water 101 % of control | dose: 200.0 mg/kg/injection, schedule: Q01DX009 (ip), vehicle: water 96 % of control | dose: 200.0 mg/kg/injection, schedule: Q04DX003 (ip), vehicle: water 103 % of control | dose: 400.0 mg/kg/injection, schedule: Q01DX009 (ip), vehicle: water 102 % of control | dose: 400.0 mg/kg/injection, schedule: Q04DX003 (ip), vehicle: water 103 % of control

COC(=O)C(CSCSC)NC(=O)/C=C/c1ccco1 (stereo not given)
inactive: dose: 25.0 mg/kg/injection, schedule: Q01DX009 (ip), vehicle: saline with Tween-80 107 % of control | [8] 107 % of control | [5] 102 % of control and 91 % of control | [1] 93 % of control | [2] 101 % of control | [3] 95 % of control
